Assay results as given in PMC12517324, “Hyperagonism of a Vitamin D Receptor Agonist/Histone Deacetylase Inhibitor Hybrid Molecule” (Journal of Medicinal Chemistry, 2025).

Tests used:
[1] = tested on: B16–F10 cells; assay: RNaseq gene expression profiling; format: cell-based, mouse; conditions: 100 nM, 24 h;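 on logFC Cck: Hybrid compounds tested at 10 µM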;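 on logFC Cited1: Hybrid compounds tested at 10 µM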
Protocol: AC-340 superinduced CYP24A1 expression in all cell lines tested, and ZG-126 appeared to be a hyperagonist in SK-MEL-28 cells. […] AC-340 treatment produced 3 times more differentially expressed genes (DEGs) than AM-193, with ZG-126 producing an intermediate number (Figure A). […] The varying effects of each treatment on the numbers of regulated genes and the fold changes observed are reflected in plots of log-fold changes and volcano plots (Figure S3B).
A quality control was performed before sequencing in paired-end at 50 M reads by Illumina NovaSeq 6000 S4 PE100. After sequencing, the FASTQ files were sent to us and all downstream analysis were performed on Galaxy (Galaxy (usegalaxy.org)). First, trimmomatic tool was used to remove the adapters from the reads. Then, using the alignment tool, HISAT2, the reads were mapped to the mouse genome. In the next step, the counted reads were annotated and finally the list of differentially expressed genes (DEGs) for each treatment was obtained using the preinstalled R package called Limma.

[2] = target: T1, zebrafish vitamin D receptor ligand binding domain (zVDR LBD, 156-453) (zebrafish, UniProt Q9PTN2 156-453); assay: crystal structure; zVDR LBD (3-7 mg/mL) incubated with a 2-fold excess of ligand AC-340 and a 3-fold excess of the NCoA2 NR2 peptide; crystals at 293 K in Na2 tartrate 1.1 M, MgCl2 0.2 M, Hepes 0.1 M pH 7.5; one LBD complex per asymmetric unit; refined to 2.1 Å; conditions: both partners purified
T1 construct: Cloned into pET28b; the His tag was removed by thrombin, so residues of the vector may remain at the end; The crystal also holds the small molecule AC-340; also called zebrafish VDR; source: Escherichia coli BL21 DE3, purified (Ni Hitrap FF crude column, thrombin cleavage, size exclusion on HiLoad Superdex 75)
T1 sequence (looked up): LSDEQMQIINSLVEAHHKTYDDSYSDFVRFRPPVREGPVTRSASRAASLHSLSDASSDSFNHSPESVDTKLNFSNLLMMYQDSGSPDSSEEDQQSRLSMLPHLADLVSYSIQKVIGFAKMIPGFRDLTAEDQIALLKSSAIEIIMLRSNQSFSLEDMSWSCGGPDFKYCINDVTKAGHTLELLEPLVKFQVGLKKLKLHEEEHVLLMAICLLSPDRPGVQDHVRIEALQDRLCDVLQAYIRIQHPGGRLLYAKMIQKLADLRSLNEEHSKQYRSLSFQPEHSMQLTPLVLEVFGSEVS

O=C(CCCCCCC(=O)Nc1ccccc1)NO [SAHA, suberoylanilide hydroxamic acid]
logFC 1500009L16Rik [1]: 0.7062 | logFC Abca13 [1]: 0.7574 | logFC Adam19 [1]: 0.5841 | logFC Adamts7 [1]: 1.124 | logFC Adamts14 [1]: 1.217 | logFC Ank3 [1]: 0.7456 | logFC Apbb1 [1]: 0.8022 | logFC Atcay [1]: 1.535 | logFC Atp1b2 [1]: 0.7178 | logFC Atp2b4 [1]: 0.9179 | logFC Bcan [1]: 0.5824 | logFC Btn1a1 [1]: 2.439 | logFC C1qtnf1 [1]: 1.607 | logFC C1s1 [1]: 0.9877 | logFC Card10 [1]: 0.6233 | logFC Cck [1]: -0.6184 | logFC Ccl2 [1]: 0.7906 | logFC Chn1 [1]: 0.6625 | logFC Cited1 [1]: -0.5815 | logFC Clcnka [1]: 1.628 | logFC Clu [1]: 0.9236 | logFC Col1a1 [1]: 1.702 | logFC Cpm [1]: 0.8993 | logFC Crip1 [1]: 0.7228 | logFC Crmp1 [1]: 0.7266 | logFC Csdc2 [1]: 1.013 | logFC Dock10 [1]: 0.6896 | logFC Egfl7 [1]: 0.5994 | logFC Elovl4 [1]: 0.6542 | logFC Enpp1 [1]: 0.7446 | logFC Enpp3 [1]: 0.9035 | logFC Entpd2 [1]: 0.9577 | logFC Fam131b [1]: 1.153 | logFC Fbxo41 [1]: 0.8175 | logFC Fstl1 [1]: 1.348 | logFC Gli1 [1]: 1.843 | logFC Glipr2 [1]: 0.8149 | logFC Gpr162 [1]: 0.6749 | logFC Gsdmc [1]: 0.6713 | logFC Gstt1 [1]: 1.731 | logFC Hoxb9 [1]: 0.9565 | logFC Itga8 [1]: 0.6392 | logFC Jam2 [1]: 0.5927 | logFC Kcnh2 [1]: 1.1509 | logFC Kcnt1 [1]: 2.101 | logFC Kdelr3 [1]: 0.5979 | logFC Klrg2 [1]: 0.6093 | logFC Loxl4 [1]: 0.8565 | logFC Lrp11 [1]: 0.65 | logFC Lrrc75b [1]: 1.006 | logFC Ltbp4 [1]: 1.299 | logFC Map2 [1]: 0.5974 | logFC Mgat3 [1]: 0.5859 | logFC Mmp11 [1]: 0.7246 | logFC Mmp17 [1]: 1.252 | logFC Mogat2 [1]: 0.5856 | logFC Myl9 [1]: 0.6886 | logFC Nacad [1]: 0.9826 | logFC Ndrg4 [1]: 0.8254 | logFC Neurl1a [1]: 0.5887 | logFC Notch1 [1]: 0.8121 | logFC Palld [1]: 0.5874 | logFC Pcdh17 [1]: 0.6033 | logFC Pdgfra [1]: 1.16 | logFC Plat [1]: 0.5899 | logFC Plppr2 [1]: 0.641 | logFC Plppr3 [1]: 0.7184 | logFC Pmm1 [1]: 0.5873 | logFC Ppm1j [1]: 0.9349 | logFC Prelp [1]: 0.6949 | logFC Prnd [1]: 0.9638 | logFC Prph [1]: 1.113 | logFC Ptgs1 [1]: 0.7769 | logFC Rab7b [1]: 1.164 | logFC Rasa4 [1]: 1.171 | logFC Rcn3 [1]: 0.5908 | logFC Reep6 [1]: 0.6217 | logFC Rflnb [1]: 0.6241 | logFC Rhpn2 [1]: 0.7266 | logFC Rtn2 [1]: 0.735 | logFC Rtn4rl2 [1]: 1.53 | logFC Rundc3a [1]: 0.8211 | logFC S100a6 [1]: 0.8372 | logFC Scube3 [1]: 0.7375 | logFC Septin4 [1]: 0.8607 | logFC Septin5 [1]: 1.1153 | logFC Spn [1]: 1.292 | logFC Sptbn2 [1]: -0.6313 | logFC Stum [1]: 0.9146 | logFC Syt3 [1]: 1.3692 | logFC Syt7 [1]: 0.603 | logFC Tagln2 [1]: 0.7428 | logFC Tgm2 [1]: 1.1319 | logFC Thbs3 [1]: 0.7215 | logFC Tlr1 [1]: 0.6918 | logFC Trim47 [1]: 0.6166 | logFC Trnp1 [1]: 0.6142 | logFC Uchl1 [1]: 0.7608 | logFC Vash1 [1]: 0.6486 | logFC Vdr [1]: 1.045 | logFC Wfdc1 [1]: 0.7568 | logFC Wnt6 [1]: 1.4553

KHKILHRLLQDSS (also called NCoA2 peptide) [coactivator NCoA2 NR2 peptide (human nuclear receptor coactivator 2, second NR box)]
binding result [2]: binds
